pIC50: −log10 of the molar value.
Experiments:
human LBAT = molecular target: T1, human LBAT (Homo sapiens, UniProt Q14973); test: LBAT (h/m) assay: 3H-taurocholic acid uptake in human LBAT-overexpressing cells; assay type: cell-based; conditions: 0.3 μM 3H-taurocholic acid and 7.5 μM cold taurocholic acid, 20 minutes, read-out: hLBAT IC50
T1 construct: expressed in transfected cells; kept under Geneticin selection
T1 sequence (Q14973 1-349): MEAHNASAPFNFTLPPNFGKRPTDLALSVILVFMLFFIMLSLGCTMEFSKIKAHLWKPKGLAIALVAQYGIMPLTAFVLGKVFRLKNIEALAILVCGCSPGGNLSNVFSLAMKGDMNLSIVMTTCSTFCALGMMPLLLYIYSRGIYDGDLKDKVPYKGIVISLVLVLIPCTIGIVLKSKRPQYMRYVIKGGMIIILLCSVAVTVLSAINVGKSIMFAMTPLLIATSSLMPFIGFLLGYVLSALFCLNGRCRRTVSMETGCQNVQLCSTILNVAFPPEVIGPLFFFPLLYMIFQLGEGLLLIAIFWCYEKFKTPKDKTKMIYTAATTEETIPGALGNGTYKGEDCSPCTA
Protocol: LBAT (h/m) Assay Protocol
20,000 cells (Human or Mouse LBAT-overexpressing cells) were seeded in 96-wells plate (Corning CLS3809) in 100 μL MEM-alpha medium (Gibco 12571-063) supplemented with 10% FBS (Gibco 10438026) containing Geneticin (Gibco 10131-027) (1 mg/mL) and incubated at 37° C. in 5% CO2 for 24 hours. After incubation, media was decanted from the wells and cells were washed two times with 300 μL of basal MEM-alpha medium (FBS-free). After decanting basal MEM-alpha medium each time, plates were tapped against paper towel to ensure maximum removal of residual media. For human LBAT, incubation mix was prepared by adding test inhibitor dilutions (3-fold serial dilution in DMSO (Sigma D2650), 10 points) in MEM-alpha (without FBS) containing 0.3 μM 3H-taurocholic acid (ARC ART-1368) and 7.5 μM cold taurocholic acid (Sigma T4009) (maintaining 0.2% final DMSO concentration). For mouse LBAT, incubation mix was prepared by adding test inhibitor dilutions (3-fold serial dilution in DMSO, 10 points) in MEM-alpha (without FBS) containing 0.3 μM 3H-taurocholic acid and 25 μM cold taurocholic acid maintaining 0.2% final DMSO concentration). 50 μL of incubation mix containing test inhibitors was then added to the wells (in duplicate) and the plates were incubated for 20 minutes in a CO2 incubator at 37° C. After incubation, the reaction was stopped by keeping the plates on ice water mix for 2-3 minutes and then the incubation mix was aspirated completely from the wells. The wells were washed two times with 250 μL of chilled unlabelled 1 mM taurocholic acid dissolved in HEPES (Gibco 15630080)-buffered (10 mM) HBSS (Gibco 14175079) (pH 7.4). The plates were tapped against a paper towel after every wash to ensure maximum removal of blocking buffer.
100 μL of MicroScint-20 (PerkinElmer 6013621) was added to the wells and kept overnight at room temperature before reading the plates in TopCount NXT™ Microplate Scintillation and Luminescence Counter from PerkinElmer under 3H Test protocol (set at 120 seconds reading time per well, with normal plate orientation).
(§1) Preparation of Test Compound Dilutions
(§2) All test compounds were provided in powder form at room temperature. 10 mM DMSO stocks of the test compounds were prepared, aliquoted and stored at −20° C. From the 10 mM DMSO stock of the compounds, a 3-fold serial dilution in DMSO was prepared to get a total of 10 dilutions of the test compounds. 0.5 μL of this dilution in DMSO was added to 250 μL of FBS-free basal media containing 3H-taurocholic acid and cold taurocholic acid to prepare the incubation mixture.

human IBAT = molecular target: T2, human IBAT (Homo sapiens, UniProt Q12908); test: IBAT (h/m) assay: 3H-taurocholic acid uptake in human IBAT-overexpressing cells; assay type: cell-based; conditions: 0.25 μM 3H-taurocholic acid and 5 μM cold taurocholic acid, 20 minutes, highest test concentration 10 μM, read-out: hIBAT IC50
T2 construct: expressed in transfected cells; kept under Puromycin selection
T2 sequence (Q12908 1-348): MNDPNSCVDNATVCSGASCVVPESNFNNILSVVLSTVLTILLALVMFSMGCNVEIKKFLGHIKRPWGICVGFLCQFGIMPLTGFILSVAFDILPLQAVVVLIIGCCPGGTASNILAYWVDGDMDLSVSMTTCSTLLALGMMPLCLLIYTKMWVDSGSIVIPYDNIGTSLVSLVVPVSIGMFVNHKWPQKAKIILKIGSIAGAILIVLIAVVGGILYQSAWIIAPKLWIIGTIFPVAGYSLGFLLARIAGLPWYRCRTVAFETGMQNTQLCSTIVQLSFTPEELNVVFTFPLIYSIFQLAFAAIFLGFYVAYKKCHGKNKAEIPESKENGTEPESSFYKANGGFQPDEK
Protocol: IBAT (h/m) Assay Protocol
10,000 cells (Human or Mouse IBAT-overexpressing cells) were seeded in 96-wells plate (Corning CLS3809) in 200 μL MEM-alpha medium (Gibco 12571-063) supplemented with 10% FBS (Gibco 10438026) containing Puromycin (Gibco A1113803) (10 μg/mL) and incubated at 37° C. in 5% CO2 for 48 hours. After incubation, media was decanted from the wells and cells were washed two times with 300 μL of basal MEM-alpha medium (FBS-free). After decanting basal MEM-alpha medium each time, plates were tapped against paper towel to ensure maximum removal of residual media. Test inhibitor dilutions (highest test concentration being 10 μM, 3-fold serial dilution, 10 points) prepared in DMSO (Sigma D2650) were added in incubation mix (maintaining 0.2% final DMSO concentration) containing 0.25 μM 3H-taurocholic acid (ARC ART-1368) and 5 μM of cold taurocholic acid (Sigma T4009). 50 μL of incubation mix containing test inhibitors was then added to the wells (in duplicate) and the plates were incubated for 20 minutes in a CO2 incubator at 37° C. After incubation, the reaction was stopped by keeping the plates on ice water mix for 2-3 minutes and then the incubation mix was aspirated completely from the wells. The wells were washed two times with 250 μL of chilled unlabelled 1 mM taurocholic acid dissolved in HEPES (Gibco 15630080)-buffered (10 mM) HBSS (Gibco 14175079) (pH 7.4). The plates were tapped against a paper towel after every wash to ensure maximum removal of blocking buffer.
100 μL of MicroScint-20 (PerkinElmer 6013621) was added to the wells and kept overnight at room temperature before reading the plates in TopCount NXT™ Microplate Scintillation and Luminescence Counter from PerkinElmer under 3H Test protocol (set at 120 seconds reading time per well).
as §1, §2

[1] = Bidirectional permeability assay (Caco-2 cells); assay type: in vitro ADME; conditions: human, FaSSIF donor buffer, 120 minutes at 37° C.
Description: Bidirectional Permeability Assay (Caco-2 Cells)
HepaRG-Based Assay Protocol

Question: With `CCCCC1CN(c2ccccc2)c2cc(SCC)c(O/C=C/C(=O)O)cc2S(=O)(=O)N1` (racemic) [Example 4, (E)-3-((3-Butyl-7-(ethylthio)-1,1-dioxido-5-phenyl-2,3,4,5-tetrahydro-1,2,5-benzothiadiazepin-8-yl)oxy)acrylic acid] as the compound, how does the pIC50 (human LBAT) read?
Answer: Its pIC50 is 8.47.

Question: What about the pIC50 (human IBAT) of the same compound?
Answer: The pIC50 was under 5.00.

Question: With `CCCCC1CN(c2ccccc2)c2cc(SCC)c(O/C=C(\F)C(=O)O)cc2S(=O)(=O)N1C` (racemic) [Example 24, (Z)-3-((3-butyl-7-(ethylthio)-2-methyl-1,1-dioxido-5-phenyl-2,3,4,5-tetrahydro-1,2,5-benzothiadiazepin-8-yl)oxy)-2-fluoroacrylic acid] as the compound, how does the pIC50 (human LBAT) read?
Answer: Its pIC50 is 8.89.

Question: And the pIC50 (human IBAT)?
Answer: The pIC50 was 5.75.

Question: With `CCCCC1CN(c2ccc(F)cc2)c2cc(SC)c(O/C=C(\F)C(=O)O)cc2S(=O)(=O)N1` (racemic) [Example 27, (Z)-3-((3-butyl-5-(4-fluorophenyl)-7-(methylthio)-1,1-dioxido-2,3,4,5-tetrahydro-1,2,5-benzothiadiazepin-8-yl)oxy)-2-fluoroacrylic acid] as the compound, how does the pIC50 (human LBAT) read?
Answer: The pIC50 was 7.89.

Question: And the pIC50 (human IBAT)?
Answer: The pIC50 was 6.32.

Question: With `CCCCC1CN(c2ccc(F)cc2)c2cc(SC)c(O/C=C/C(=O)O)cc2S(=O)(=O)N1` (single isomer, unassigned) [Example 2, (E)-3-((3-butyl-5-(4-fluorophenyl)-7-(methylthio)-1,1-dioxido-2,3,4,5-tetrahydro-1,2,5-benzothiadiazepin-8-yl)oxy)acrylic acid] as the compound, how does the pIC50 (human LBAT) read?
Answer: Its pIC50 is 6.56.

Question: And the pIC50 (human IBAT)?
Answer: The pIC50 was under 5.00.

Question: What does the source list for `CCCCC1CN(c2ccccc2)c2cc(SCC)c(O/C=C/C(=O)O)cc2S(=O)(=O)N1` (single isomer, unassigned) [Example 5, (E)-3-((3-butyl-7-(ethylthio)-1,1-dioxido-5-phenyl-2,3,4,5-tetrahydro-1,2,5-benzothiadiazepin-8-yl)oxy)acrylic acid]?
Answer: pIC50 (human LBAT): 8.47; pIC50 (human IBAT): 5.06

Question: With `CCCCC1CN(c2ccc(F)cc2)c2cc(SCC)c(O/C=C/C(=O)O)cc2S(=O)(=O)C1` (single isomer, unassigned) [Example 8, (E)-3-((3-butyl-7-(ethylthio)-5-(4-fluorophenyl)-1,1-dioxido-2,3,4,5-tetrahydro-1,5-benzothiazepin-8-yl)oxy)acrylic acid] as the compound, how does the pIC50 (human LBAT) read?
Answer: Its pIC50 is under 6.48.

Question: And the pIC50 (human IBAT)?
Answer: Its pIC50 is under 5.00.

Question: What does the source list for `CCCCC1CN(c2ccc(F)cc2)c2cc(SCC)c(O/C=C/C(=O)O)cc2S(=O)(=O)C1` (single isomer, unassigned) [Example 9, (E)-3-((3-butyl-7-(ethylthio)-5-(4-fluorophenyl)-1,1-dioxido-2,3,4,5-tetrahydro-1,5-benzothiazepin-8-yl)oxy)acrylic acid]?
Answer: pIC50 (human LBAT): 8.70; Papp A→B at 120 min, 10 µM ([1]; Caco-2, pH 7.4, absorptive direction (A2B)): 155 nm/s; Papp B→A at 120 min, 10 µM ([1]; Caco-2, pH 7.4, secretory direction (B2A)): 186 nm/s

Question: With `CCCCC1CN(c2ccc(F)cc2)c2cc(SC)c(O/C=C(\F)C(=O)O)cc2S(=O)(=O)C1` (single isomer, unassigned) [Example 11, (Z)-3-((3-butyl-5-(4-fluorophenyl)-7-(methylthio)-1,1-dioxido-2,3,4,5-tetrahydro-1,5-benzothiazepin-8-yl)oxy)-2-fluoroacrylic acid] as the compound, how does the pIC50 (human LBAT) read?
Answer: Its pIC50 is 9.05.

Question: What about the pIC50 (human IBAT) of the same compound?
Answer: The pIC50 was 6.28.

Question: What does the source list for `CCCCC1CN(c2ccc(F)cc2)c2cc(SC)c(O/C=C(\F)C(=O)O)cc2S(=O)(=O)C1` (single isomer, unassigned) [Example 12, (Z)-3-((3-butyl-5-(4-fluorophenyl)-7-(methylthio)-1,1-dioxido-2,3,4,5-tetrahydro-1,5-benzothiazepin-8-yl)oxy)-2-fluoroacrylic acid]?
Answer: pIC50 (human LBAT): 7.82; pIC50 (human IBAT): 5.85

Question: With `CCCCC1CN(c2ccccc2)c2cc(SCC)c(O/C=C(\F)C(=O)O)cc2S(=O)(=O)C1` (single isomer, unassigned) [Example 14, (Z)-3-((3-butyl-7-(ethylthio)-1,1-dioxido-5-phenyl-2,3,4,5-tetrahydro-1,5-benzothiazepin-8-yl)oxy)-2-fluoroacrylic acid] as the compound, how does the pIC50 (human LBAT) read?
Answer: Its pIC50 is 7.68.

Question: What about the pIC50 (human IBAT) of the same compound?
Answer: The pIC50 was under 5.00.

Question: Which results are given for `CCCCC1CN(c2ccc(F)cc2)c2cc(SCC)c(O/C=C(\F)C(=O)O)cc2S(=O)(=O)C1` (single isomer, unassigned) [Example 17, (Z)-3-((3-butyl-7-(ethylthio)-5-(4-fluorophenyl)-1,1-dioxido-2,3,4,5-tetrahydro-1,5-benzothiazepin-8-yl)oxy)-2-fluoroacrylic acid]?
Answer: pIC50 (human LBAT): 8.26; pIC50 (human IBAT): < 5.48

Question: With `CCCCC1CN(c2ccc(F)cc2)c2cc(SC)c(O/C=C(\F)C(=O)O)cc2S(=O)(=O)N1C` (single isomer, unassigned) [Example 21, (Z)-3-((3-butyl-5-(4-fluorophenyl)-2-methyl-7-(methylthio)-1,1-dioxido-2,3,4,5-tetrahydro-1,2,5-benzothiadiazepin-8-yl)oxy)-2-fluoroacrylic acid] as the compound, how does the pIC50 (human LBAT) read?
Answer: Its pIC50 is 8.00.

Question: What about the pIC50 (human IBAT) of the same compound?
Answer: The pIC50 was under 5.48.

Question: With `CCCCC1CN(c2ccc(F)cc2)c2cc(SCC)c(O/C=C(\F)C(=O)O)cc2S(=O)(=O)N1C` (single isomer, unassigned) [Example 23, (Z)-3-((3-butyl-7-(ethylthio)-5-(4-fluorophenyl)-2-methyl-1,1-dioxido-2,3,4,5-tetrahydro-1,2,5-benzothiadiazepin-8-yl)oxy)-2-fluoroacrylic acid] as the compound, how does the pIC50 (human LBAT) read?
Answer: Its pIC50 is 7.15.

Question: What about the pIC50 (human IBAT) of the same compound?
Answer: The pIC50 was under 5.48.

Question: With `CCCCC1CN(c2ccccc2)c2cc(SCC)c(O/C=C(\F)C(=O)O)cc2S(=O)(=O)N1C` (single isomer, unassigned) [Example 26, (Z)-3-((3-butyl-7-(ethylthio)-2-methyl-1,1-dioxido-5-phenyl-2,3,4,5-tetrahydro-1,2,5-benzothiadiazepin-8-yl)oxy)-2-fluoroacrylic acid] as the compound, how does the pIC50 (human LBAT) read?
Answer: The pIC50 was 6.88.

Question: What about the pIC50 (human IBAT) of the same compound?
Answer: Its pIC50 is 5.95.
